Experimental data as given in article PMC10612255, “Discovery of novel 2,3,4,5-tetrahydrospiro[benzo[c]azepine-1,1’-cyclohexan]-5-ol derivatives as PARP-1 inhibitors” (BMC Chemistry, 2023).
Read-outs that look alike come from different tables or passages of the source.

Experiments:
HCT-116 = assay: MTT assay, anti-proliferative effect on HCT-116 cells; assay type: cell-based, human; conditions: read-out: IC50 HCT-116
Description: (§1) A549, OVCAR-3, HCT-116, and MCF-7 were purchased from American type culture collection (ATCC, USA). […] And all cell lines used in the experiment were tested for mycoplasma contamination every two weeks.
(§2) A549, OVCAR-3, HCT-116, and MCF-7 cells were seeded in 96-well plates, and then treated with target compounds for 72 h. Then, 20 µL MTT (5 mg/mL, in PBS) was added into each well, and dissolved in 150 µL DMSO after incubation for 4 h. Finally, the absorbance was measured with microplate reader (490 nm).

A549 = assay: MTT assay, anti-proliferative effect on A549 cells; assay type: cell-based, human; conditions: read-out: IC50 A549
Description: as §1, §2

OVCAR-3 = assay: MTT assay, anti-proliferative effect on OVCAR-3 cells; assay type: cell-based, human; conditions: read-out: IC50 OVCAR-3
Description: as §1, §2

MCF-7 = assay: MTT assay, anti-proliferative effect on MCF-7 cells; assay type: cell-based, human; conditions: read-out: IC50 MCF-7
Description: as §1, §2

Row | Structure (SMILES) | IC50 (HCT-116; Homo sapiens, HCT-116, 72 h) [µM] | melting point [°C] | IC50 (A549; Homo sapiens, A549, 72 h) [µM] | IC50 (OVCAR-3; Homo sapiens, OVCAR-3, 72 h) [µM] | IC50 (MCF-7; Homo sapiens, MCF7, 72 h) [µM] | IC50 (HCT-116; HCT-116, human colon cancer cell line, MTT, 72 h, Mean ± SD) [µM] | IC50 (A549; A549, human lung adenocarcinoma cell line, MTT, 72 h, Mean ± SD) [µM] | IC50 (OVCAR-3; OVCAR-3, human ovarian cancer cell line, MTT, 72 h, Mean ± SD) [µM] | IC50 (MCF-7; MCF7, human breast cancer cell line, MTT, 72 h, Mean ± SD) [µM]
1 | OC1CCN(Cc2cn(-c3ccccc3Cl)nn2)C2(CCCCC2)c2ccccc21 (stereo not drawn) [Compound 11 h, 2-((1-(2-chlorophenyl)-1 H-1,2,3-triazol-4-yl)methyl)-2,3,4,5-tetrahydrospiro[benzo[c]azepine-1,1’-cyclohexan]-5-ol] | 8.97 ± 3.16 | 167.9 to 168.3 | 15.1 ± 1.18 | 4.44 ± 0.1 | 6.5 ± 1.78 |  |  |  | 
2 | Cc1ccc(-n2cc(CN3CCC(O)c4ccccc4C34CCCCC4)nn2)cc1 (stereo not drawn) [Compound 11 g, 2-((1-(p-tolyl)-1 H-1,2,3-triazol-4-yl)methyl)-2,3,4,5-tetrahydrospiro[benzo[c]azepine-1,1’-cyclohexan]-5-ol] | 9.81 ± 2.89 | 164.3 to 165.2 | 6.84 ± 1.68 | 4.64 ± 0.99 | 7.96 ± 1.1 |  |  |  | 
3 | COc1cccc(-n2cc(CN3CCC(O)c4ccccc4C34CCCCC4)nn2)c1 (stereo not drawn) [Compound 11 L, 2-((1-(3-methoxyphenyl)-1 H-1,2,3-triazol-4-yl)methyl)-2,3,4,5-tetrahydrospiro[benzo[c]azepine-1,1’-cyclohexan]-5-ol] | 11.7 ± 4.88 | 172.3 to 174.1 | 11.1 ± 2.98 | 6.14 ± 0.56 | 8.54 ± 1.65 |  |  |  | 
4 | COc1ccc(-n2cc(CN3CCC(O)c4ccccc4C34CCCCC4)nn2)cc1 (stereo not drawn) [Compound 11 m, 2-((1-(4-methoxyphenyl)-1 H-1,2,3-triazol-4-yl)methyl)-2,3,4,5-tetrahydrospiro[benzo[c]azepine-1,1’-cyclohexan]-5-ol] | 5.87 ± 0.54 | 170.2 to 172.3 | 8.7 ± 4.1 | 6 ± 1.83 | 9.33 ± 1.33 |  |  |  | 
5 | OC1CCN(Cc2cn(-c3cccc(F)c3)nn2)C2(CCCCC2)c2ccccc21 (stereo not drawn) [Compound 11c, 2-((1-(3-fluorophenyl)-1 H-1,2,3-triazol-4-yl)methyl)-2,3,4,5-tetrahydrospiro[benzo[c]azepine-1,1’-cyclohexan]-5-ol] | 12.6 ± 2.43 |  | 4.29 ± 0.56 | 7.65 ± 2.56 | 7.6 ± 1.96 |  |  |  | 
6 | N#Cc1ccccc1-n1cc(CN2CCC(O)c3ccccc3C23CCCCC3)nn1 (stereo not drawn) [Compound 11t, 2-(4-((5-hydroxy-4,5-dihydrospiro[benzo[c]azepine-1,1’-cyclohexan]-2(3 H)-yl)methyl)-1 H-1,2,3-triazol-1-yl)benzonitrile] | > 50 |  | > 50 | > 50 | > 50 |  |  |  | 
7 | COc1ccccc1-n1cc(CN2CCC(O)c3ccccc3C23CCCCC3)nn1 (stereo not drawn) [Compound 11k, 2-((1-(2-methoxyphenyl)-1 H-1,2,3-triazol-4-yl)methyl)-2,3,4,5-tetrahydrospiro[benzo[c]azepine-1,1’-cyclohexan]-5-ol] | 13.1 ± 2.03 |  | 12.6 ± 5.91 | 10.5 ± 0.09 | 7.54 ± 1.05 |  |  |  | 
8 | Oc1ccc(-n2cc(CN3CCC(O)c4ccccc4C34CCCCC4)nn2)cc1 (stereo not drawn) [Compound 11s, 2-((1-(4-hydroxyphenyl)-1 H-1,2,3-triazol-4-yl)methyl)-2,3,4,5-tetrahydrospiro[benzo[c]azepine-1,1’-cyclohexan]-5-ol] | > 50 | 171.1 to 172.3 | > 50 | > 50 | > 50 |  |  |  | 
9 | Cc1cccc(-n2cc(CN3CCC(O)c4ccccc4C34CCCCC4)nn2)c1 (stereo not drawn) [Compound 11f, 2-((1-(m-tolyl)-1 H-1,2,3-triazol-4-yl)methyl)-2,3,4,5-tetrahydrospiro[benzo[c]azepine-1,1’-cyclohexan]-5-ol] | 12.2 ± 2.01 | 167.3 to 168.2 | 11.8 ± 1.07 | 21.7 ± 8.94 | 8.94 ± 3.17 |  |  |  | 
10 | OC1CCN(Cc2cn(-c3ccccc3)nn2)C2(CCCCC2)c2ccccc21 (stereo not drawn) [Compound 11a, 2-((1-phenyl-1 H-1,2,3-triazol-4-yl)methyl)-2,3,4,5-tetrahydrospiro[benzo[c]azepine-1,1’-cyclohexan]-5-ol] | 10.3 ± 2.74 |  | 9.5 ± 1.23 | 13.6 ± 2.45 | 15.5 ± 2.53 |  |  |  | 
11 | OC1CCN(Cc2cn(-c3cccc(Br)c3)nn2)C2(CCCCC2)c2ccccc21 (stereo not drawn) [Compound 11o, 2-((1-(3-bromophenyl)-1 H-1,2,3-triazol-4-yl)methyl)-2,3,4,5-tetrahydrospiro[benzo[c]azepine-1,1’-cyclohexan]-5-ol] | 10.8 ± 2.11 | 169.3 to 170.2 | 7.4 ± 1.75 | 4.2 ± 0.48 | 7.99 ± 2.53 |  |  |  | 
12 | N#Cc1ccc(-n2cc(CN3CCC(O)c4ccccc4C34CCCCC4)nn2)cc1 (stereo not drawn) [Compound 11v, 4-(4-((5-hydroxy-4,5-dihydrospiro[benzo[c]azepine-1,1’-cyclohexan]-2(3 H)-yl)methyl)-1 H-1,2,3-triazol-1-yl)benzonitrile] | > 50 |  | > 50 | > 50 | > 50 |  |  |  | 
13 | OC1CCN(Cc2cn(-c3ccc(F)cc3)nn2)C2(CCCCC2)c2ccccc21 (stereo not drawn) [Compound 11d, 2-((1-(4-fluorophenyl)-1 H-1,2,3-triazol-4-yl)methyl)-2,3,4,5-tetrahydrospiro[benzo[c]azepine-1,1’-cyclohexan]-5-ol] | 8.76 ± 3.11 | 166.2 to 166.8 | 4.88 ± 1.18 | 17.1 ± 1.5 | 16.2 ± 3.88 |  |  |  | 
14 | OC1CCN(Cc2cn(-c3cccc(Cl)c3)nn2)C2(CCCCC2)c2ccccc21 (stereo not drawn) [Compound 11i, 2-((1-(3-chlorophenyl)-1 H-1,2,3-triazol-4-yl)methyl)-2,3,4,5-tetrahydrospiro[benzo[c]azepine-1,1’-cyclohexan]-5-ol] | 10.8 ± 2.95 | 168.1 to 168.8 | 13.6 ± 2.47 | 4.28 ± 0.77 | 6.34 ± 3.17 |  |  |  | 
15 | Oc1ccccc1-n1cc(CN2CCC(O)c3ccccc3C23CCCCC3)nn1 (stereo not drawn) [Compound 11q, 2-((1-(2-hydroxyphenyl)-1 H-1,2,3-triazol-4-yl)methyl)-2,3,4,5-tetrahydrospiro[benzo[c]azepine-1,1’-cyclohexan]-5-ol] | > 50 | 156.8 to 157.2 | 10.6 ± 1.2 | 13.2 ± 4.09 | 8.72 ± 0.71 |  |  |  | 
16 | Oc1cccc(-n2cc(CN3CCC(O)c4ccccc4C34CCCCC4)nn2)c1 (stereo not drawn) [Compound 11r, 2-((1-(3-hydroxyphenyl)-1 H-1,2,3-triazol-4-yl)methyl)-2,3,4,5-tetrahydrospiro[benzo[c]azepine-1,1’-cyclohexan]-5-ol] | 12.1 ± 0.98 | 157.4 to 158.6 | 11.9 ± 5.74 | 3.9 ± 0.26 | > 50 |  |  |  | 
17 | OC1CCN(Cc2cn(-c3ccccc3Br)nn2)C2(CCCCC2)c2ccccc21 (stereo not drawn) [Compound 11n, 2-((1-(2-bromophenyl)-1 H-1,2,3-triazol-4-yl)methyl)-2,3,4,5-tetrahydrospiro[benzo[c]azepine-1,1’-cyclohexan]-5-ol] | 15.7 ± 1.98 | 168.2 to 169.8 | 17.9 ± 3.94 | 12.6 ± 1.55 | 10.6 ± 0.85 |  |  |  | 
18 | N#Cc1cccc(-n2cc(CN3CCC(O)c4ccccc4C34CCCCC4)nn2)c1 (stereo not drawn) [Compound 11u, 3-(4-((5-hydroxy-4,5-dihydrospiro[benzo[c]azepine-1,1’-cyclohexan]-2(3 H)-yl)methyl)-1 H-1,2,3-triazol-1-yl)benzonitrile] | > 50 |  | > 50 | > 50 | > 50 |  |  |  | 
19 | OC1CCN(Cc2cn(-c3ccc(Cl)cc3)nn2)C2(CCCCC2)c2ccccc21 (stereo not drawn) [Compound 11j, 2-((1-(4-chlorophenyl)-1 H-1,2,3-triazol-4-yl)methyl)-2,3,4,5-tetrahydrospiro[benzo[c]azepine-1,1’-cyclohexan]-5-ol] | 17.9 ± 1.95 | 165.6 to 166.3 | 18.8 ± 2.67 | 5.79 ± 1.25 | 5.27 ± 0.92 |  |  |  | 
20 | OC1CCN(Cc2cn(-c3ccc(Br)cc3)nn2)C2(CCCCC2)c2ccccc21 (stereo not drawn) [Compound 11p, 2-((1-(4-bromophenyl)-1 H-1,2,3-triazol-4-yl)methyl)-2,3,4,5-tetrahydrospiro[benzo[c]azepine-1,1’-cyclohexan]-5-ol] | 9.93 ± 3.01 |  | 9.58 ± 2.53 | 12.7 ± 1.43 | 16.4 ± 4.37 |  |  |  | 
21 | Cc1ccccc1-n1cc(CN2CCC(O)c3ccccc3C23CCCCC3)nn1 (stereo not drawn) [Compound 11e, 2-((1-(o-tolyl)-1 H-1,2,3-triazol-4-yl)methyl)-2,3,4,5-tetrahydrospiro[benzo[c]azepine-1,1’-cyclohexan]-5-ol] | 9.22 ± 4.57 | 165.2 to 166 | 15.6 ± 2.8 | 7.95 ± 3.35 | 9.33 ± 4.08 |  |  |  | 
22 | CNCc1ccc(-c2[nH]c3cc(F)cc4c3c2CCNC4=O)cc1 [Rucaparib, reference compound] |  |  |  |  |  | 13.5 ± 0.17 | 4.91 ± 0.11 | 2.41 ± 0.13 | 13 ± 0.28
